According to patent US20250197420A1, “MACROCYCLIC COMPOUNDS, COMPOSITIONS, AND METHODS OF USING THEREOF” (Sionna Therapeutics Inc., priority 2022, published 2025):

Key:
[1] = biological target: T1, Purified recombinant NBD1 (Homo sapiens, UniProt P13569); assay: Aggregation analysis using differential static light scattering (DSLS): thermal stability of NBD1; type: binding; settings: NBD1 0.2 mg/ml; Tagg of compound well minus average Tagg of DMSO control wells
T1 construct: Purified recombinant NBD1 was produced using previously described methods; made in house
T1 sequence (P13569 423-646 limits assumed): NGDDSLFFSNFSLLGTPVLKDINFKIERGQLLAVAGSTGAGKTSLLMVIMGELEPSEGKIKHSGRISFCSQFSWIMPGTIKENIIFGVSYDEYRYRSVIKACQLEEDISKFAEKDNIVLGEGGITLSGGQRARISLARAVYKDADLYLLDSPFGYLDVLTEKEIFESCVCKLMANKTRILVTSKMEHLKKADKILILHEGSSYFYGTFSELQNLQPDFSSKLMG
How it was run: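 ΔTagg is compound-well aggregation temperature minus the DMSO-control mean, each Tagg being the inflection point of light scattering measured by DSLS during a 1 °C/min ramp up to 70 °C. The protein was purified NBD1 (0.2 mg/ml) in pH 7.6 buffer containing 2 mM ATP, 5 mM MgCl2 and 1% glycerol.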

[2] = test system: Primary human bronchial epithelial cells from a ΔF508 homozygous CF donor (CF-HBE cells); assay: TECC24 recording of CFTR-mediated transepithelial chloride transport, AUC fold over benchmark VX-809 @10 μM; type: cell-based; settings: 48 hours incubation, AUC of forskolin-stimulated IEQ
How it was run: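 Values are the forskolin-to-inhibitor-172 AUC of equivalent Cl− current, derived from transepithelial voltage and resistance, divided by the VX-809 AUC and binned as A <3, B 3–6, C 6–20. Cells were pre-incubated with compound for 48 h at 36.5 °C; the bath (pH 7.4) received benzamil 10 μM, forskolin 10 μM, then CFTRinh-172 20 μM.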

Row | Compound | DSLS (ΔTagg) [1] | TECC (test agent AUC divided by VX-809 AUC) [2]
1 | CN1CCCCC(C)(c2cccc(CCC(=O)O)c2)c2cnc([nH]2)-c2cc(ccc2F)Oc2c(F)cc3[nH]ccc3c2CC1=O (centres unmarked) [Compound 68, 3-[3-(21,27-Difluoro-6,11-dimethyl-12-oxo-23-oxa-3,11,18,29-tetrazapentacyclo[22.3.1.12,5.014,22.015,19]nonacosa-1(28),2,4,14,16,19,21,24,26-nonaen-6-yl)phenyl]propanoic acid] | B (a value above 5 °C and less than or equal to 10 °C is marked “B”) | A (a TECC value less than 3 is marked “A”)
2 | CN1CC(C)(C)CCCC(C)(c2cccc(CCC(=O)O)c2)c2cnc([nH]2)-c2cc(ccc2F)Oc2c(F)c(F)c3[nH]ccc3c2CCC1=O (centres unmarked) [Compound 70, 3-[3-(22,23,29-Trifluoro-6,10,10,12-tetramethyl-13-oxo-25-oxa-3,12,20,31-tetrazapentacyclo[24.3.1.12,5.016,24.017,21]hentriaconta-1(30),2,4,16,18,21,23,26,28-nonaen-6-yl)phenyl]propanoic acid] | C (a value greater than 10 °C and less than or equal to 25 °C is marked “C”) | A (a TECC value less than 3 is marked “A”)
3 | CN1CC(C)(C)CCCC(C)(c2ccccc2)c2cnc([nH]2)-c2cc(ccc2F)Oc2c(F)c(F)c3[nH]ccc3c2CCC1=O (centres unmarked) [Compound 71, 22,23,29-Trifluoro-6,10,10,12-tetramethyl-6-phenyl-25-oxa-3,12,20,31-tetrazapentacyclo[24.3.1.12,5.016,24.017,21]hentriaconta-1(30),2,4,16,18,21,23,26,28-nonaen-13-one] | A (an ΔTagg value less than or equal to 5 °C is marked “A”) | A (a TECC value less than 3 is marked “A”)
4 | CN1Cc2c(c(F)cc3[nH]ccc23)Oc2ccc(F)c(c2)-c2ncc([nH]2)C(C)(c2cccc(CCC(=O)O)c2)CCCOCC(C)(C)C1=O (centres unmarked) [Compound 73, 3-[3-(23,29-difluoro-6,12,12,14-tetramethyl-13-oxo-10,25-dioxa-3,14,20,31-tetrazapentacyclo[24.3.1.12,5.016,24.017,21]hentriaconta-1(30),2,4,16,18,21,23,26,28-nonaen-6-yl)phenyl]propanoic acid] | C (a value greater than 10 °C and less than or equal to 25 °C is marked “C”) | B (a value between 3 and 6 is marked “B”)
5 | CN1Cc2c(c(F)cc3[nH]ccc23)Oc2ccc(F)c(c2)-c2ncc([nH]2)C(C)(c2ccccc2)CCCOCC(C)(C)C1=O (centres unmarked) [Compound 74, 23,29-difluoro-6,12,12,14-tetramethyl-6-phenyl-10,25-dioxa-3,14,20,31-tetrazapentacyclo[24.3.1.12,5.016,24.017,21]hentriaconta-1(30),2,4,16,18,21,23,26,28-nonaen-13-one] | A (an ΔTagg value less than or equal to 5 °C is marked “A”) | A (a TECC value less than 3 is marked “A”)
6 | CC1(c2cccc(CCC(=O)O)c2F)CCCCOC(=O)NCCc2c(c(F)cc3[nH]ccc23)Oc2ccc(F)c(c2)-c2ncc1[nH]2 (centres unmarked) [Compound 80, 3-[3-(23,29-Difluoro-6-methyl-12-oxo-11,25-dioxa-3,13,20,31-tetrazapentacyclo[24.3.1.12,5.016,24.017,21]hentriaconta-1(30),2,4,16,18,21,23,26,28-nonaen-6-yl)-2-fluoro-phenyl]propanoic acid] | C (a value greater than 10 °C and less than or equal to 25 °C is marked “C”) | B (a value between 3 and 6 is marked “B”)
7 | CC1(c2cccc(CCC(=O)O)c2)CNC(=O)OCCCCc2c(c(F)cc3[nH]ccc23)Oc2ccc(F)c(c2)-c2ncc1[nH]2 (centres unmarked) [Compound 83, 3-[3-(22,28-Difluoro-6-methyl-9-oxo-10,24-dioxa-3,8,19,30-tetrazapentacyclo[23.3.1.12,5.015,23.016,20]triaconta-1(29),2,4,15,17,20,22,25,27-nonaen-6-yl)phenyl]propanoic acid] | A (an ΔTagg value less than or equal to 5 °C is marked “A”) | A (a TECC value less than 3 is marked “A”)
